Test results reported in PubChem BioAssay (NCI).
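Test compounds were applied to cells in 96-well plates for 48 hours at 5 doses. Here, GI50 denotes the concentration required for 50% inhibition of growth. At the TGI there is no net growth.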

Columns and labels:
Experiment in all cases: NCI-60 cell line screen, 48 h
OVCAR-3 ovarian = tested on: OVCAR-3 ovarian
SN12C renal = tested on: SN12C renal
K-562 leukemia = tested on: K-562 leukemia
MALME-3M melanoma = tested on: MALME-3M melanoma
HOP-92 NSCLC = tested on: HOP-92 NSCLC
HS 578T breast = tested on: HS 578T breast
RXF 393 renal = tested on: RXF 393 renal
UACC-62 melanoma = tested on: UACC-62 melanoma
HCT-15 colon = tested on: HCT-15 colon
HT29 colon = tested on: HT29 colon

CC1(C)N=C(N)N=C(N)N1c1cccc(CCCCc2ccccc2)c1
GI50 (OVCAR-3 ovarian): 0.35 µM
TGI (OVCAR-3 ovarian): 8.74 µM
GI50 (SN12C renal): 0.427 µM
TGI (SN12C renal): 12.3 µM
GI50 (K-562 leukemia): 0.0688 µM
TGI (K-562 leukemia): 13.6 µM
GI50 (MALME-3M melanoma): 2.31 µM
TGI (MALME-3M melanoma): 14.8 µM
GI50 (HOP-92 NSCLC): 0.326 µM
TGI (HOP-92 NSCLC): 4.44 µM
GI50 (HS 578T breast): 4.57 µM
TGI (HS 578T breast): 28.5 µM
GI50 (RXF 393 renal): 2.28 µM
TGI (RXF 393 renal): 17.2 µM
GI50 (UACC-62 melanoma): 0.186 µM
TGI (UACC-62 melanoma): 10.9 µM
GI50 (HCT-15 colon): 1.73 µM
TGI (HCT-15 colon): 21.7 µM
GI50 (HT29 colon): 0.0543 µM
TGI (HT29 colon): 11.6 µM

NC(CSc1nc2ccccn2c1[N+](=O)[O-])C(=O)O (centres undefined)
TGI (OVCAR-3 ovarian): > 100 µM
TGI (SN12C renal): > 100 µM
TGI (K-562 leukemia): > 100 µM
TGI (MALME-3M melanoma): > 100 µM
TGI (HOP-92 NSCLC): > 100 µM
TGI (HS 578T breast): > 100 µM
TGI (RXF 393 renal): > 100 µM
TGI (UACC-62 melanoma): > 100 µM
TGI (HCT-15 colon): > 100 µM
TGI (HT29 colon): > 100 µM

O=C(Nc1ccccc1)NS(=O)(=O)c1ccc(N2N=C3c4ccccc4CC3C2c2ccccn2)cc1 (centres undefined)
GI50 (OVCAR-3 ovarian): 21.6 µM
TGI (OVCAR-3 ovarian): 74.4 µM
GI50 (SN12C renal): 30.4 µM
TGI (SN12C renal): > 100 µM
GI50 (K-562 leukemia): 26.7 µM
TGI (K-562 leukemia): 65.6 µM
GI50 (HOP-92 NSCLC): 74.9 µM
TGI (HOP-92 NSCLC): > 100 µM
GI50 (HS 578T breast): 40.7 µM
TGI (HS 578T breast): > 100 µM
GI50 (RXF 393 renal): 45.3 µM
TGI (RXF 393 renal): > 100 µM
GI50 (UACC-62 melanoma): 17.8 µM
TGI (UACC-62 melanoma): 37.2 µM
GI50 (HCT-15 colon): 23.1 µM
TGI (HCT-15 colon): > 100 µM
GI50 (HT29 colon): 37.9 µM
TGI (HT29 colon): > 100 µM

OCCNc1ncnc2c1ncn2C1OC(CO)C(O)C1O (centres undefined)
TGI (OVCAR-3 ovarian): > 100 µM
TGI (SN12C renal): > 100 µM
TGI (MALME-3M melanoma): > 100 µM
TGI (HOP-92 NSCLC): > 100 µM
TGI (HS 578T breast): > 100 µM
TGI (RXF 393 renal): > 100 µM
TGI (UACC-62 melanoma): > 100 µM
TGI (HCT-15 colon): > 100 µM
TGI (HT29 colon): > 100 µM

COc1cc2ccnc3c2c(c1OC)-c1ccc(=O)ccc1-3
GI50 (OVCAR-3 ovarian): 21.8 µM
TGI (OVCAR-3 ovarian): 56.2 µM
GI50 (SN12C renal): 31 µM
TGI (SN12C renal): > 100 µM
GI50 (K-562 leukemia): 14.5 µM
TGI (K-562 leukemia): 35.5 µM
GI50 (MALME-3M melanoma): 37.9 µM
TGI (MALME-3M melanoma): 75.5 µM
GI50 (HOP-92 NSCLC): 14.4 µM
TGI (HOP-92 NSCLC): 80.4 µM
GI50 (HS 578T breast): 36.6 µM
TGI (HS 578T breast): > 100 µM
GI50 (RXF 393 renal): 18.7 µM
TGI (RXF 393 renal): 77 µM
GI50 (UACC-62 melanoma): 14.6 µM
TGI (UACC-62 melanoma): 34 µM
GI50 (HCT-15 colon): 22.5 µM
TGI (HCT-15 colon): 77.1 µM
GI50 (HT29 colon): 14.8 µM
TGI (HT29 colon): 68.9 µM

O=c1oc2ccc(Cl)cc2c(=O)n1-c1cc(C(F)(F)F)cc(C(F)(F)F)c1
GI50 (OVCAR-3 ovarian): 0.276 µM
TGI (OVCAR-3 ovarian): 10.7 µM
GI50 (SN12C renal): 0.259 µM
TGI (SN12C renal): 3.8 µM
GI50 (K-562 leukemia): 0.211 µM
TGI (K-562 leukemia): > 38 µM
GI50 (MALME-3M melanoma): 0.222 µM
TGI (MALME-3M melanoma): 0.696 µM
GI50 (HOP-92 NSCLC): 0.112 µM
TGI (HOP-92 NSCLC): 0.479 µM
GI50 (HS 578T breast): 0.239 µM
TGI (HS 578T breast): 0.987 µM
GI50 (RXF 393 renal): 0.228 µM
TGI (RXF 393 renal): 0.746 µM
GI50 (UACC-62 melanoma): 0.147 µM
TGI (UACC-62 melanoma): 0.673 µM
GI50 (HCT-15 colon): 0.306 µM
TGI (HCT-15 colon): 1.78 µM
GI50 (HT29 colon): 2.12 µM
TGI (HT29 colon): 14.6 µM

COc1cc2nc(N3CCCC3)nc(Nc3ccccc3)c2cc1OC
GI50 (OVCAR-3 ovarian): 1.8 µM
TGI (OVCAR-3 ovarian): 3.3 µM
GI50 (SN12C renal): 1.72 µM
TGI (SN12C renal): 3.24 µM
GI50 (K-562 leukemia): 0.382 µM
TGI (K-562 leukemia): 2.07 µM
GI50 (MALME-3M melanoma): 1.88 µM
TGI (MALME-3M melanoma): 3.37 µM
GI50 (HOP-92 NSCLC): 1.39 µM
TGI (HOP-92 NSCLC): 2.99 µM
GI50 (HS 578T breast): 1.97 µM
TGI (HS 578T breast): 4.45 µM
GI50 (RXF 393 renal): 1.4 µM
TGI (RXF 393 renal): 2.78 µM
GI50 (UACC-62 melanoma): 1.73 µM
TGI (UACC-62 melanoma): 3.23 µM
GI50 (HCT-15 colon): 0.68 µM
TGI (HCT-15 colon): 2.04 µM
GI50 (HT29 colon): 1.34 µM
TGI (HT29 colon): 3.11 µM

COc1ccc(-c2cc(-c3cn[nH]c3-c3ccccn3)ccn2)cc1
GI50 (OVCAR-3 ovarian): > 25 µM
TGI (OVCAR-3 ovarian): > 25 µM
GI50 (SN12C renal): > 25 µM
TGI (SN12C renal): > 25 µM
GI50 (K-562 leukemia): 14 µM
TGI (K-562 leukemia): > 25 µM
GI50 (MALME-3M melanoma): > 25 µM
TGI (MALME-3M melanoma): > 25 µM
GI50 (HOP-92 NSCLC): > 25 µM
TGI (HOP-92 NSCLC): > 25 µM
GI50 (HS 578T breast): > 25 µM
TGI (HS 578T breast): > 25 µM
GI50 (RXF 393 renal): > 25 µM
TGI (RXF 393 renal): > 25 µM
GI50 (UACC-62 melanoma): > 25 µM
TGI (UACC-62 melanoma): > 25 µM
GI50 (HCT-15 colon): > 25 µM
TGI (HCT-15 colon): > 25 µM
GI50 (HT29 colon): > 25 µM
TGI (HT29 colon): > 25 µM

Cc1ccc(N=Nc2c(N)nn(-c3ccccc3)c2N)cc1
GI50 (OVCAR-3 ovarian): 0.705 µM
TGI (OVCAR-3 ovarian): 3.58 µM
GI50 (SN12C renal): 7.66 µM
TGI (SN12C renal): > 100 µM
GI50 (K-562 leukemia): 0.256 µM
TGI (MALME-3M melanoma): > 100 µM
GI50 (HOP-92 NSCLC): 3.44 µM
TGI (HOP-92 NSCLC): 9.05 µM
GI50 (HS 578T breast): 1.94 µM
TGI (HS 578T breast): > 31.4 µM
GI50 (RXF 393 renal): 2.9 µM
TGI (RXF 393 renal): > 100 µM
GI50 (UACC-62 melanoma): 0.874 µM
TGI (UACC-62 melanoma): > 100 µM
GI50 (HCT-15 colon): 0.612 µM
TGI (HCT-15 colon): > 100 µM
GI50 (HT29 colon): 0.353 µM

c1ccc(-c2nnc(Nc3ccc4c(c3)OCCO4)o2)c(NCc2ccncc2)c1
GI50 (OVCAR-3 ovarian): 0.021 µM
TGI (OVCAR-3 ovarian): 0.0504 µM
GI50 (SN12C renal): 0.0579 µM
TGI (SN12C renal): > 64.6 µM
GI50 (K-562 leukemia): < 0.01 µM
TGI (K-562 leukemia): 4.43 µM
GI50 (MALME-3M melanoma): 0.68 µM
TGI (MALME-3M melanoma): > 67.3 µM
GI50 (HOP-92 NSCLC): 0.286 µM
TGI (HOP-92 NSCLC): 6.87 µM
GI50 (HS 578T breast): 0.0281 µM
TGI (HS 578T breast): > 69.4 µM
GI50 (RXF 393 renal): < 0.01 µM
TGI (RXF 393 renal): 0.0421 µM
GI50 (UACC-62 melanoma): 0.0312 µM
TGI (UACC-62 melanoma): > 100 µM
GI50 (HCT-15 colon): 0.0369 µM
TGI (HCT-15 colon): > 100 µM
GI50 (HT29 colon): 0.0321 µM
TGI (HT29 colon): 1.75 µM

Cc1ncc(C(=O)Nc2ccc(CN3CCN(C)CC3)c(C(F)(F)F)c2)cc1C#Cc1cnc(N)c2ncccc12
GI50 (OVCAR-3 ovarian): 1.32 µM
TGI (OVCAR-3 ovarian): 4.96 µM
GI50 (SN12C renal): 0.221 µM
TGI (SN12C renal): 1.91 µM
GI50 (MALME-3M melanoma): < 0.0177 µM
TGI (MALME-3M melanoma): 0.135 µM
GI50 (HOP-92 NSCLC): 0.129 µM
TGI (HOP-92 NSCLC): 1.66 µM
GI50 (HS 578T breast): 0.23 µM
TGI (HS 578T breast): 4.69 µM
GI50 (RXF 393 renal): 0.0984 µM
TGI (RXF 393 renal): 1.49 µM
GI50 (UACC-62 melanoma): 0.0276 µM
TGI (UACC-62 melanoma): 1.31 µM
GI50 (HCT-15 colon): 0.0752 µM
TGI (HCT-15 colon): 1.79 µM
GI50 (HT29 colon): 0.0435 µM
TGI (HT29 colon): 2.08 µM

O=C(NC(=S)NNC(=S)NNc1ccccc1)c1ccccc1
GI50 (OVCAR-3 ovarian): 18.2 µM
TGI (OVCAR-3 ovarian): > 100 µM
GI50 (SN12C renal): 4.87 µM
TGI (SN12C renal): > 100 µM
GI50 (K-562 leukemia): 1.13 µM
TGI (K-562 leukemia): > 100 µM
GI50 (MALME-3M melanoma): 24.2 µM
TGI (MALME-3M melanoma): > 100 µM
GI50 (HS 578T breast): 1.55 µM
TGI (HS 578T breast): > 100 µM
GI50 (RXF 393 renal): 29 µM
TGI (RXF 393 renal): > 100 µM
GI50 (HCT-15 colon): 5.21 µM
TGI (HCT-15 colon): > 100 µM
GI50 (HT29 colon): 15.1 µM
TGI (HT29 colon): > 100 µM

O=C(O)CCCSc1nc2ccccc2s1
TGI (OVCAR-3 ovarian): > 100 µM
TGI (SN12C renal): > 100 µM
TGI (K-562 leukemia): > 100 µM
TGI (MALME-3M melanoma): > 100 µM
TGI (HOP-92 NSCLC): > 100 µM
TGI (HS 578T breast): > 100 µM
TGI (RXF 393 renal): > 100 µM
TGI (UACC-62 melanoma): > 100 µM
TGI (HCT-15 colon): > 100 µM
TGI (HT29 colon): > 100 µM

ClC1=NC(Cl)C(Cl)=N/C1=N\c1ncn[nH]1 (centres undefined)
GI50 (OVCAR-3 ovarian): 1.95 µM
TGI (OVCAR-3 ovarian): 3.4 µM
GI50 (SN12C renal): 1.76 µM
TGI (SN12C renal): 3.31 µM
GI50 (MALME-3M melanoma): 1.82 µM
TGI (MALME-3M melanoma): 3.7 µM
GI50 (HOP-92 NSCLC): 1.59 µM
TGI (HOP-92 NSCLC): 3.1 µM
GI50 (HS 578T breast): 14.3 µM
TGI (HS 578T breast): 61 µM
GI50 (RXF 393 renal): 1.71 µM
TGI (RXF 393 renal): 3.2 µM
GI50 (HCT-15 colon): 1.95 µM
TGI (HCT-15 colon): 4.68 µM
GI50 (HT29 colon): 2.03 µM
TGI (HT29 colon): 3.9 µM
